Common to all, as to assay type: cell-based
Experiment [1] addresses T1, P2Y11 receptor (Homo sapiens, UniProt Q96G91, DUP173-173).
T1 construct: expressed in transfected cells; host or cells: 1321N1 astrocytoma cells and CHO-K1 cells, G418-selected, pEFIN3 bicistronic vector
T1 sequence (Q96G91 with tags, fused parts or gaps DUP173-173): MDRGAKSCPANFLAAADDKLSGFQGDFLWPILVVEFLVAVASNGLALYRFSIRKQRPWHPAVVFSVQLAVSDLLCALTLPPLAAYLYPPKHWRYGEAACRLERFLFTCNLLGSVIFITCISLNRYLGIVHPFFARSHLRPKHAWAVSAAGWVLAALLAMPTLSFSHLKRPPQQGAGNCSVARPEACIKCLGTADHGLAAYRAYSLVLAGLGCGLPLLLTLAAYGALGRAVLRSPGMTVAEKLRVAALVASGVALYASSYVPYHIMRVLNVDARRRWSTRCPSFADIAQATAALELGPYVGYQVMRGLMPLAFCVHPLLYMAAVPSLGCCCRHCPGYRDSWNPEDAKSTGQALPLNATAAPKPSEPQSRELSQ
The experiment is described as follows: Inositol trisphosphate (IP3) accumulation in 1321N1 astrocytoma cells transfected with the new receptor. To be noted: for IP3 accumulation in response to nucleotide: 100 μM, pool of G418-resistant P2Y11-transfected 1321N1 clones; for Agonist efficacy compared with ATP: same for the phosphoinositide and cAMP pathways; for Effect on IP3 accumulation in concentration-action curves: large range of concentrations, FIG. 4A. The method, then:
(§1) The complete sequence of the new receptor according to the invention was subcloned between the Hind III and Nhe I sites of the bicistronic pEFIN3 expression vector. 1321N1 and CHO-K1 cells were transfected with the recombinant pEFIN3 plasmid or with the plasmid alone using the calcium phosphate precipitation method as described (19). The transfected cells were selected with 400 μg/ml G418 in complete medium (10% FCS, 100 units/ml penicillin, 100 μg/ml streptomycin and 2.5 μg/ml amphotericin B in Duibecco's modified Eagle's medium (DMEM)) two days after transfection and maintained in the same medium (10).
1321N1 cells were labelled for 24 hours with […] [^3H] inositol in inositol free DMEM containing 5% FCS, antibiotics, amphotericin, sodium pyruvate and 400 μg/ml G418. Cells were washed twice with Krebs-Ringer Hepes (KRH) buffer of the following composition (124 mM NaCl, 5 mM KC1, 1.25 mM MgSO4, 1.45 mM CaCl2, 1.25 mM KH2PO4, 25 mM Hepes (pH:7.4) and 8 mM glucose) and incubated in the same medium for 30 min. The cells were then challenged by various nucleotides for 30 s. The incubation was stopped by the addition of an ice cold 3% perchioric acid solution. IP were extracted and separated on Dowex columns as previously described (20).
The complete sequence of the new receptor was introduced in the pEFIN3 expression vector in order to transfect the 1321N1 astrocytoma cell line, used previously to characterize several P2Y subtypes (6, 10, 12). The pool of G418-resistant clones was tested for its functional response to several nucleotides.

Experiment [2] addresses T1, P2Y11 receptor. The experiment is described as follows: cAMP accumulation in CHO-K1 cells transfected with the new receptor. To be noted: for cAMP content in response to nucleotide: 100 μM, pool of G418 resistant P2Y11-transfected CHO-K1 clones; for Inhibition of the cAMP response to ATP (30 μM): indomethacin 10 μg/ml from 30 min before, 8 (p-sulfophenyl) theophylline 100 μM. How it is done: as §1
(§2) Stably transfected CHO-K1 or 1321N1 cell lines were spread on Petri dishes (150.000 cells per dish) and cultured in Ham's F12 or DMEM medium containing 10% FCS, antibiotics, amphotericin, sodium pyruvate and 400 μg/ml G418. Cells were preincubated for 30 min in KRH buffer with Rolipram (25 μM) and incubated for different times in the presence of the agonists (15 min in most experiments). The incubation was stopped by the addition of 1 ml HC1 0.1 M. The incubation medium was dried up, resuspended in water and diluted as required. Cyclic AMP was quantified by radioimmunoassay after acetylation as previously described (21).
(§3) A much lower but significant endogeneous response due to the degradation of adenine nucleotides into adenosine was also obtained in the 1321N1 cells transfected with the vector alone. […] We therefore used CHO-K1 cells in order to characterize the coupling of the new receptor to the cAMP pathway. A pool of G418 resistant CHO-K1 clones was first tested for its response to several nucleotides at a concentration of 100 μM. […] The rank order of potency was the same as in the inositol phosphate study on 1321N1 cells.
On the technique in general: Changes in cAMP serve as a functional read-out for many G protein-coupled receptors.

Experiment [3] addresses T1, P2Y11 receptor. In words: [Ca2+]i measurements on 1321N1 transfected cells. Particulars: 10 μM. The method, then:
The complete sequence of the new receptor was introduced in the pEFIN3 expression vector in order to transfect the 1321N1 astrocytoma cell line, used previously to characterize several P2Y subtypes (6, 10, 12). The pool of G418-resistant clones was tested for its functional response to several nucleotides. […] The effect of ADP and 2MeSADP were minimal.

For experiment [4], the system named is CHO-K1 cells transfected with the vector alone. In words: cAMP in CHO-K1 cells transfected with the vector alone or untransfected. To be noted: 100 μM. The method, then:
as §1
as §2, with “(21). […]” for “(21).”

For experiment [5], the target named is T1, P2Y11 receptor. The experiment is described as follows: cAMP measurement in 1321N1 cells transfected with the new receptor. The method, then: as §2, §3

Take `O=c1ccn([C@@H]2O[C@H](COP(=O)(O)OP(=O)(O)O)[C@@H](O)[C@H]2O)c(=O)[nH]1` [UDP]: in experiment [1] (30 s), the “IP3 accumulation in response to nucleotide” value (shortened to “IP3 accumulation in response”) was “inactive”. Moreover, the “cAMP content in response to nucleotide” value in experiment [2] was “completely inactive”.

`COc1ccc2c(c1)c(CC(=O)O)c(C)n2C(=O)c1ccc(Cl)cc1` [indomethacin, Indomethacin]: in experiment [2], the “Inhibition of the cAMP response to ATP (30 μM)” value was “inhibited neither”.

Turning to Pertussis toxin, in experiment [1] (pertussis toxin 50 ng/ml, 24 h pretreatment), the “Effect on the ATP response (IP3)” value was “no effect”.

As to `Nc1ncnc2c1ncn2[C@@H]1O[C@H](COP(=O)(O)OP(=O)(O)OP(=O)(O)OP(=O)(O)OC[C@H]2O[C@@H](n3cnc4c(N)ncnc43)[C@H](O)[C@@H]2O)[C@@H](O)[C@H]1O` [AP4A], the “IP3 accumulation in response” value in experiment [1] (30 s) is “inactive”.

Turning to `O=c1ccn([C@@H]2O[C@H](COP(=O)(O)OP(=O)(O)OP(=O)(O)O)[C@@H](O)[C@H]2O)c(=O)[nH]1` [UTP], the “IP3 accumulation in response” value in experiment [1] (30 s) was “inactive”. For the same compound, the “cAMP content in response to nucleotide” value in experiment [2] is “completely inactive”.

As for `Nc1ncnc2c1ncn2[C@@H]1O[C@H](COP(=O)(O)O)[C@@H](O)[C@H]1O` [AMP], the “IP3 accumulation in response” value in experiment [1] (30 s) was “inactive”. The “cAMP content in response to nucleotide” value in experiment [2] is “completely inactive”.

For `CSc1nc(N)c2ncn([C@@H]3O[C@H](COP(=O)(O)OP(=O)(O)OP(=O)(O)O)[C@@H](O)[C@H]3O)c2n1` [2MeSATP, 2-methylthio-ATP], the midpoint of the response in experiment [1] (P2Y11-transfected 1321N1 cells, 30 s, means±range of two independent experiments), the EC50, lay at 118 ± 15 µM. Besides, the “Agonist efficacy compared with ATP” value in experiment [1] was “same maximal effect than ATP but presented a lower potency”.

On to `CSc1nc(N)c2ncn([C@@H]3O[C@H](COP(=O)(O)OP(=O)(O)O)[C@@H](O)[C@H]3O)c2n1` [2MeSADP, 2-methylthio-ADP], for which, in experiment [1], the “Effect on IP3 accumulation in concentration-action curves” value is given as “minimal” and the “Agonist efficacy compared with ATP” value is “almost inactive”.

`Nc1ncnc2c1ncn2[C@@H]1O[C@H](COP(=O)(O)OP(=O)(O)OP(=O)(O)OP(=O)(O)OP(=O)(O)OP(=O)(O)OC[C@H]2O[C@@H](n3cnc4c(N)ncnc43)[C@H](O)[C@@H]2O)[C@@H](O)[C@H]1O` [AP6A]: the “IP3 accumulation in response” value in experiment [1] (30 s) was “inactive”.

In the case of `Nc1ncnc2c1ncn2[C@@H]1O[C@H](COP(=O)(O)OP(=O)(O)OP(=O)(O)O)[C@@H](O)[C@H]1O` [ATP], the “IP3 accumulation in response” value in experiment [1] (30 s) was “strong inositol trisphosphate (IP3) accumulation”. Further, the “[Ca2+]i response” value in experiment [3] was “response”. For the same compound, in experiment [2], the “cAMP content in response to nucleotide” value is “strong increase in the cAMP content”. Moreover, the “cAMP response after short stimulation” value in experiment [2] (after 2 min of stimulation, CHO-K1) is given as “significant cAMP response”. Besides, the “cAMP content in vector-alone cells” value in experiment [4] was “inactive”. Also, the cAMP response entry in experiment [5] was “strong cAMP increase”.

Turning to `Nc1ncnc2c1ncn2[C@@H]1O[C@H](COP(=O)(O)OP(=O)(O)O)[C@@H](O)[C@H]1O` [ADP], the “IP3 accumulation in response” value in experiment [1] (30 s) is “inactive”. The “Effect on IP3 accumulation in concentration-action curves” value in experiment [1] is “minimal”. The “[Ca2+]i response” value in experiment [3] is “inactive”. In experiment [2], the “cAMP content in response to nucleotide” value is “completely inactive”.

`Cn1c(=O)c2[nH]c(-c3ccc(S(=O)(=O)O)cc3)nc2n(C)c1=O` [8 (p-sulfophenyl) theophylline]: the “Inhibition of the cAMP response to ATP (30 μM)” value in experiment [2] is on record as “inhibited neither”.

`Nc1ncnc2c1ncn2[C@@H]1O[C@H](CO)[C@@H](O)[C@H]1O` [adenosine]: in experiment [1] (30 s), the “IP3 accumulation in response” value is “inactive”. Further, the “cAMP content in response to nucleotide” value in experiment [2] was “completely inactive”.

A word on the EC50: it is the concentration at which the effect is half-maximal. Higher therefore signals a need for much substance.
